These are literature values, as cited in US20190320628A1, “A NON-HUMAN ANIMAL MODEL OF NEURODEGENERATIVE DISORDERS” (priority 2016, published 2019).

The structures appear in SMILES notation.

One data set relates to Wistar rats. Particulars: KA alone.
For a further data set, the system named is rats. Particulars: initial KA dose 5 mg/kg i.p., subsequent doses tailored.
For another data set, the system named is animals. The following applies: KA used to model human epilepsy, SE/cSE-based models.

For `C=C(C)[C@H]1CN[C@H](C(=O)O)[C@H]1CC(=O)O` [KA, kainic acid], in the data set on Wistar rats, the “Non-responders among the surviving animals” value is given as 20-40%. For the same compound, the Mortality result is “up to 30%” in the data set on Wistar rats (SE terminated by diazepam) and “up to 50%” with animals. Moreover, the Mortality rate entry with rats is “around 15%”. Also, the “Non-responders (surviving animals that never exhibit spontaneous seizures)” value in the data set on animals was “up to 50%”.
